{"source": "patent US20230000820A1", "about": "“SOLID DOSAGE FORM OF N-1-PYRROLIDINE-N-5-(3-TRIFLUOROMETHOXY)PHENYL BIGUANIDE AND USES THEREOF” (ImmunoMet Therapeutics, Inc., priority 2021, published 2023)", "key": {"Beagle dogs": {"tested_on": "Beagle dogs", "experiment": "Clinical Observation/Cageside Observation of dogs treated with compound 1 (Example 1)", "format": "in vivo", "procedure": "(§1) Animals were dosed with N-1-pyrrolidine-N-5-(3-trifluoromethoxy)phenyl biguanide acetate salt as specified in Table 1. Dosages were freshly prepared on the day of dosing. The PO (per os) solution was DI water. The enteric capsule was HMPC enteric-coated capsules. The test substance was prepared and used immediately before administration. The preparation method was to weigh N-1-pyrrolidine-N-5-(3-trifluoromethoxy)phenyl biguanide and add sterile distilled water. The mixture was titrated to final volumes by mixing via sonication for 2 minutes and vortexing for 5 minutes. During the administration time, the preparation was handled at room temperature. All animals for IV administration had free access to food and water. Animals for PO were fasted overnight prior to dosing and were fed approximately 2 hours after dosing. Group 2 shared the same 2 animals. Animals in PO_A arm were dosed first. After 2 days washout period, animals in PO_B arm were dosed. After 2 days washout period, animals in PO_C arm were dosed. Clinical observations of animals treated with compound 1 were recorded as specified in Tables 3-5."}, "human subjects [1]": {"tested_on": "human subjects", "conditions": "in vivo", "procedure": "A phase 1 clinical study investigating the safety and tolerability of compound 1 in human subjects was conducted. Healthy volunteers were administered either an uncoated tablet at 100 mg QD (cohort 1, N=6), 200 mg QD (cohort 2, N=6), or 400 mg QD (cohort 3, N=6), or a coated tablet at 400 mg (cohort 4, N=6) or 800 mg QD (cohort 5, N=6), and the compound 1 plasma concentration achieved by the subjects was recorded over time (FIGS. 2 and 4). Cancer patients were administered either an uncoated tablet at 100 mg QOD (cohort 1, N=3), 200 mg QOD (cohort 2, N=3), 400 mg QOD (cohort 3, N=3), 800 mg QOD (cohort 4, N=3), or 1200 mg QOD (cohort 5, N=3), or were administered an uncoated tablet at 800 mg QD (cohort 6, N=3) or 1200 mg QD (cohort 7, N=4), and the compound 1 plasma concentration achieved by the subjects was recorded over time (FIGS. 3 and 4)."}, "[2]": {"parameters": "species or system Beagle dogs", "conditions": "dog, in vivo, po", "procedure": "as §1\nPlasma for both IV and PO dosing was sampled from animals pre-dose, and 5 minutes, 15 minutes, 30 minutes, 1 hour, 2 hours, 4 hours, 8 hours, and 24 hours post dose.\nSamples were collected via venipuncture of peripheral veins except the dosing vein. 0.3 mL of blood was drawn per time point. The anticoagulant used was potassium EDTA. Whole blood samples were gently inverted several times to ensure anticoagulation then placed on wet ice prior to centrifugation. Within 30 minutes of collection, the samples were centrifuged at approximately 2000×g (force) for 10 minutes at 2 to 8° C. to obtain plasma. The resultant plasma samples were immediately separated divided into 2 aliquots (˜[…] each) and transferred to cryogenic vial. Samples were maintained on wet ice throughout processing and stored in a freezer at −75±15° C. prior to analysis.\nThe standard curve was run in duplicate with a minimum of six standards, and a minimum of five standards and the LLOQ should fall within ±20% of the nominal value. Verapamil and dexamethasone were normally used as internal standards. […] A minimum of duplicate QC's at three concentrations (low, mid, and high QC) were incorporated into each run with the low QC no more than 3×LLOQ, the mid QC around the middle of the curve, and the high QC should be near the ULOQ (minimally 80% but less than 100% of the value of the highest standard) for the run and the mean value should be within ±20% of the theoretical value. The results of the QC's provide the basis for accepting or rejecting the run. At least 67% or four of six QC's should be within 20% of their respective nominal values; 33% of the QC's (not replicates of the same concentration) can fall outside 20% of nominal value. The simplest model that adequately describes the concentration-response relationship should be used. Linear or quadratic regression can be used. Weighting was 1/x or 1/x2.\nConcentrations of Test Article in the plasma samples were analyzed using a LC-MS/MS method. WinNonlin (Phoenix™, version 6.1) or other similar software will be used for pharmacokinetic calculations. The following pharmacokinetic parameters were be calculated, whenever possible from the plasma concentration versus time data: PO administration: T1/2, Cmax, Tmax, MRTinf, AUCinf, AUClast, F%, Number of Points for Regression (FIG. 1). […]"}, "human subjects [3]": {"tested_on": "human subjects", "conditions": "in vivo", "procedure": "A phase 1 clinical study investigating the safety and tolerability of compound 1 in human subjects was conducted. Healthy volunteers were administered either an uncoated tablet at 100 mg QD (cohort 1, N=6), 200 mg QD (cohort 2, N=6), or 400 mg QD (cohort 3, N=6), or a coated tablet at 400 mg (cohort 4, N=6) or 800 mg QD (cohort 5, N=6), and the compound 1 plasma concentration achieved by the subjects was recorded over time (FIGS. 2 and 4). Cancer patients were administered either an uncoated tablet at 100 mg QOD (cohort 1, N=3), 200 mg QOD (cohort 2, N=3), 400 mg QOD (cohort 3, N=3), 800 mg QOD (cohort 4, N=3), or 1200 mg QOD (cohort 5, N=3), or were administered an uncoated tablet at 800 mg QD (cohort 6, N=3) or 1200 mg QD (cohort 7, N=4), and the compound 1 plasma concentration achieved by the subjects was recorded over time (FIGS. 3 and 4). A phase 1 clinical study investigating the safety and tolerability of compound 1 in human subjects was conducted. 22 subjects with solid tumors were enrolled and split into seven cohorts. Cohort 1 received 100 mg QOD, cohort 2 received 200 mg QOD, cohort 3 received 400 mg QOD, cohort 4 received 800 mg QOD, cohort 5 received […], cohort 6 received 800 mg QD, and cohort 7 received 1,200 mg QD.", "remark": "listed apart in the source"}}, "note": "Like-named read-outs stand apart in the source and are kept apart here.", "data": [{"compound": "N=C(NC(=N)N1CCCC1)Nc1cccc(OC(F)(F)F)c1", "note": "[compound 1, N-1-pyrrolidine-N-5-(3-trifluoromethoxy)phenyl biguanide]", "values": [{"measurement": "Notes: tolerability", "setting": "Beagle dogs; PO A, HPMC Enteric Coating Capsule, vs Initial Formulation and Dosing (PO B)", "result": "Improved"}, {"measurement": "Notes: tolerability", "setting": "Beagle dogs; PO C, Zofran given prior to compound 1 dosing", "result": "no difference"}, {"measurement": "Loose feces observed, timepoint", "setting": "Beagle dogs; dog, in vivo", "result": "d. Loose feces was observed from POC-4(8319440) at 8 h timepoint"}, {"measurement": "Comment present", "setting": "Beagle dogs; dog, in vivo, 100 mg/kg", "result": "No"}, {"measurement": "Discoloration", "setting": "Beagle dogs; dog, in vivo, 100 mg/kg", "result": "No"}, {"measurement": "Dyspnea (labored breathing)", "setting": "Beagle dogs; dog, in vivo, 100 mg/kg", "result": "No"}, {"measurement": "Emesis observed, timepoint", "setting": "Beagle dogs; dog, in vivo, 100 mg/kg", "result": "c. “Loose feces” and “emesis” were observed from POA-4(8319440) at 4 h timepoint"}, {"measurement": "Feces with abnormal content", "setting": "Beagle dogs; dog, in vivo, 100 mg/kg", "result": "No"}, {"measurement": "Few feces", "setting": "Beagle dogs; dog, in vivo, 100 mg/kg", "result": "No"}, {"measurement": "Frothy", "setting": "Beagle dogs; dog, in vivo, 100 mg/kg", "result": "No"}, {"measurement": "Loose feces", "setting": "Beagle dogs; dog, in vivo, 100 mg/kg", "result": "Yes(f)"}, {"measurement": "Reduced food intake", "setting": "Beagle dogs; dog, in vivo, 100 mg/kg", "result": "No"}, {"measurement": "Soft Stool", "setting": "Beagle dogs; dog, in vivo, 100 mg/kg", "result": "No"}, {"measurement": "Soft stool observed, timepoint", "setting": "Beagle dogs; dog, in vivo, 100 mg/kg", "result": "f. Soft stool was observed from POA-3(8310744) and POA-4(8319440) at 24 h timepoint"}, {"measurement": "Some broken capsule found in the loose feces, timepoint", "setting": "Beagle dogs; dog, in vivo, 100 mg/kg", "result": "b. Some broken capsule was found in the loose feces at 30 min timepoint from POA-3"}, {"measurement": "Temperature Drop", "setting": "Beagle dogs; dog, in vivo, 100 mg/kg", "result": "No"}, {"measurement": "Temperature Rise", "setting": "Beagle dogs; dog, in vivo, 100 mg/kg", "result": "No"}, {"measurement": "Torpidity", "setting": "Beagle dogs; dog, in vivo, 100 mg/kg", "result": "No"}, {"measurement": "Tremor (slight)", "setting": "Beagle dogs; dog, in vivo, 100 mg/kg", "result": "No"}, {"measurement": "Uncoordinated movement", "setting": "Beagle dogs; dog, in vivo, 100 mg/kg", "result": "No"}, {"measurement": "Weight drop", "setting": "Beagle dogs; dog, in vivo, 100 mg/kg", "result": "No"}, {"measurement": "Comment present", "setting": "Beagle dogs; dog, in vivo, iv, 10 mg/kg", "result": "No"}, {"measurement": "Diarrhea", "setting": "Beagle dogs; dog, in vivo, iv, 10 mg/kg", "result": "No"}, {"measurement": "Discoloration", "setting": "Beagle dogs; dog, in vivo, iv, 10 mg/kg", "result": "No"}, {"measurement": "Dyspnea (labored breathing)", "setting": "Beagle dogs; dog, in vivo, iv, 10 mg/kg", "result": "No"}, {"measurement": "Feces with abnormal content", "setting": "Beagle dogs; dog, in vivo, iv, 10 mg/kg", "result": "No"}, {"measurement": "Few feces", "setting": "Beagle dogs; dog, in vivo, iv, 10 mg/kg", "result": "No"}, {"measurement": "Frothy", "setting": "Beagle dogs; dog, in vivo, iv, 10 mg/kg", "result": "No"}, {"measurement": "Loose feces", "setting": "Beagle dogs; dog, in vivo, iv, 10 mg/kg", "result": "No"}, {"measurement": "Reduced food intake", "setting": "Beagle dogs; dog, in vivo, iv, 10 mg/kg", "result": "No"}, {"measurement": "Soft Stool", "setting": "Beagle dogs; dog, in vivo, iv, 10 mg/kg", "result": "No"}, {"measurement": "Temperature Drop", "setting": "Beagle dogs; dog, in vivo, iv, 10 mg/kg", "result": "No"}, {"measurement": "Temperature Rise", "setting": "Beagle dogs; dog, in vivo, iv, 10 mg/kg", "result": "No"}, {"measurement": "Torpidity", "setting": "Beagle dogs; dog, in vivo, iv, 10 mg/kg", "result": "No"}, {"measurement": "Tremor (slight)", "setting": "Beagle dogs; dog, in vivo, iv, 10 mg/kg", "result": "No"}, {"measurement": "Uncoordinated movement", "setting": "Beagle dogs; dog, in vivo, iv, 10 mg/kg", "result": "No"}, {"measurement": "Weight drop", "setting": "Beagle dogs; dog, in vivo, iv, 10 mg/kg", "result": "No"}, {"measurement": "Gastrointestinal adverse events", "setting": "human subjects [1]", "result": "Low-grade gastrointestinal adverse events were prominent"}, {"measurement": "Notes: AUC", "setting": "[2]", "result": "Improved AUC"}, {"measurement": "Notes: Bioavailability", "setting": "[2]", "result": "Improved"}, {"measurement": "Notes: PK", "setting": "[2]", "result": "no difference in PK"}, {"measurement": "AUCInf", "setting": "[2]; 100 mg/kg", "result": 10750, "unit": "ng·h/mL"}, {"measurement": "T1/2", "setting": "[2]; 100 mg/kg", "result": 6.65, "unit": "h"}, {"measurement": "Adverse events reported, character", "setting": "human subjects [3]", "result": "primarily GI, low-grade, monitorable, manageable, and reversible"}, {"measurement": "Dose limiting toxicities", "setting": "human subjects [3]", "result": "no dose limiting toxicities"}, {"measurement": "Dose suggested as suitable for phase 2 studies", "setting": "human subjects [3]", "result": 800, "unit": "mg QD"}, {"measurement": "Gastrointestinal adverse events", "setting": "human subjects [3]", "result": "Low-grade gastrointestinal adverse events were prominent"}]}]}
